From BindingDB's records for doi:10.7270/Q2D798VP (Broad Institute, 2009)
Structures can show the parent of a compound that is named as a salt.

Target: T1, Zinc finger protein mex-5 (Caenorhabditis elegans, UniProt Q9XUB2)
T1 sequence (Q9XUB2 whole entry): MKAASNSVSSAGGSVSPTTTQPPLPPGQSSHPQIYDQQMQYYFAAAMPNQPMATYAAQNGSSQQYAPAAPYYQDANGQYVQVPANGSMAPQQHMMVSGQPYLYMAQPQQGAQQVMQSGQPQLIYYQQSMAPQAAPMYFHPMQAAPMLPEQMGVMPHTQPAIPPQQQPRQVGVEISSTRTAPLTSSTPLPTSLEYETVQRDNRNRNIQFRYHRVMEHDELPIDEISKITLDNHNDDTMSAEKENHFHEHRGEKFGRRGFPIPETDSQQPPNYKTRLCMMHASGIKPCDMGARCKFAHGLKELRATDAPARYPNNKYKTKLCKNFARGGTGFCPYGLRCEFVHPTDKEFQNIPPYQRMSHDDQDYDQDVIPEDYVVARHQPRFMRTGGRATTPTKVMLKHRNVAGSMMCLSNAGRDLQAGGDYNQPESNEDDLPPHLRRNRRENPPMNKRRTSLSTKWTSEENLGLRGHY
Assay: potency of MEX-5 RNA-binding blockers – biochemical, C. elegans, fluorescence polarization, dose response (AID 1960)

Structure (SMILES)	EC50 [µM]
CCCSc1nnc(N2C(=O)C(=O)C(C(=O)c3ccco3)C2c2ccccc2F)s1 (stereo not given) [2-(2-fluorophenyl)-3-(furan-2-carbonyl)-4-hydroxy-1-(5-propylsulfanyl-1,3,4-thiadiazol-2-yl)-2H-pyrrol-5-one]	> 300
O=C1C(=Nc2ccccc2O)C(Cl)C(=O)N1c1ccccc1 (stereo not given) [3-Chloro-4-(2-hydroxy-phenylamino)-1-phenyl-pyrrole-2,5-dione]	73
CC(=N)C(C#N)C(=O)CSc1ncnc2ccccc12 (stereo not given) [(E)-3-amino-2-(2-quinazolin-4-ylsulfanylacetyl)but-2-enenitrile]	8.02
COc1cc2c(cc1C1C3=C(CC(C)(C)CC3=O)OC(=N)C1C#N)OCO2 (stereo not given) [MLS001208406]	> 300
CCOC(=O)N1CCC2=C(C#N)C(=N)C(C#N)(C#N)[C@H](c3ccsc3)[C@H]2C1 [(8R,8aR)-6-amino-5,7,7-tricyano-8-(3-thienyl)-1,3,8,8a-tetrahydroisoquinoline-2-carboxylic acid ethyl ester]	58.7
C=c1c(C(=O)OC)c(O)c(=Cc2ccco2)n1-c1ccccc1 [MLS000780287]	5.06
N#CC1C(=N)OC2=C(C(=O)CCC2)[C@]12C(=O)N(CC(N)=O)c1ccccc12 (stereo partly drawn) [2-[(4R)-2-amino-3-cyano-2',5-diketo-spiro[7,8-dihydro-6H-chromene-4,3'-indoline]-1'-yl]acetamide]	> 300
COC1=CC(CN=Nc2[nH]c(=O)nnc2C)C=C([N+](=O)[O-])C1=O (stereo not given) [5-[[(E)-(3-methoxy-5-nitro-4-oxo-1-cyclohexa-2,5-dienylidene)methyl]hydrazo]-6-methyl-2H-1,2,4-triazin-3-one]	10.8
CCCOc1cccc(C2C(C(=O)c3ccco3)C(=O)C(=O)N2c2nnc(C)s2)c1 (stereo not given) [3-(furan-2-carbonyl)-4-hydroxy-1-(5-methyl-1,3,4-thiadiazol-2-yl)-2-(3-propoxyphenyl)-2H-pyrrol-5-one]	82.7
Cc1ccc2oc(=O)c(CC(=O)c3cccs3)nc2c1 [(3Z)-3-[2-keto-2-(2-thienyl)ethylidene]-6-methyl-4H-1,4-benzoxazin-2-one]	6.82
O=C(CC=Nc1ccc([N+](=O)[O-])cc1)c1ccc(Br)cc1 [(E)-1-(4-bromophenyl)-3-(4-nitroanilino)-2-propen-1-one]	> 300
C=CCOc1cccc(C2C(C(=O)c3ccc(C)o3)C(=O)C(=O)N2c2nccs2)c1 (stereo not given) [3-(5-methylfuran-2-yl)carbonyl-4-oxidanyl-2-(3-prop-2-enoxyphenyl)-1-(1,3-thiazol-2-yl)-2H-pyrrol-5-one]	0.851
COc1cc(C2c3c(-c4cccnc4)n[nH]c3OC(=N)C2C#N)cc(Br)c1O (stereo not given)	> 300
COc1ccc(C2C3=C(CC(C)(C)CC3=O)OC(=N)C2C#N)cc1 (stereo not given) [2-amino-4-(4-methoxyphenyl)-7,7-dimethyl-5-oxo-6,8-dihydro-4H-1-benzopyran-3-carbonitrile]	> 300
O=C1N=c2ccccc2=C1NNc1cccc(Cl)c1 [(3E)-1H-indole-2,3-dione 3-[(3-chlorophenyl)hydrazone]]	45.4
CC1(C)CC(=O)C2=C(C1)OC(=N)C(C#N)C2c1ccccc1 (stereo not given) [2-amino-5-keto-7,7-dimethyl-4-phenyl-6,8-dihydro-4H-chromene-3-carbonitrile]	> 300
O=C(N/N=C/C1C=C(Cl)C=C([N+](=O)[O-])C1=O)c1ccc2c(c1)OCO2 (stereo not given) [N'-[(E)-(3-chloranyl-5-nitro-6-oxidanylidene-cyclohexa-2,4-dien-1-ylidene)methyl]-1,3-benzodioxole-5-carbohydrazide]	241
N#CC(C(=O)c1cc2ccccc2o1)c1nc2ccccc2s1 (stereo not given) [(2Z)-3-(1-benzofuran-2-yl)-2-(3H-1,3-benzothiazol-2-ylidene)-3-oxidanylidene-propanenitrile]	> 300
Cc1[nH]c2ccccc2c1/C=C1\N=C(c2ccc(F)cc2)OC1=O [2-(4-fluorophenyl)-4-[(2-methyl-1H-indol-3-yl)methylene]-1,3-oxazol-5(4H)-one]	5.53
O=C(O)c1ccccc1N=NCc1c(Sc2nnnn2-c2ccccc2)nc2ccccn2c1=O [MLS000775267]	116
COc1ccc(N=C(C(=C(Cl)C(Cl)Cl)[N+](=O)[O-])n2nnc3ccccc32)cc1 [N-[(1E)-1-(1-benzotriazolyl)-3,4,4-trichloro-2-nitrobuta-1,3-dienyl]-4-methoxyaniline]	49.1
Cc1[nH]n(C(N)=S)c(=O)c1N=Nc1cccc(C(=O)O)c1 [3-[(1-carbamothioyl-3-methyl-5-oxo-4H-pyrazol-4-yl)diazenyl]benzoic acid]	22.7
C[C@H]1c2cccc(O)c2C(=O)C2C(=O)[C@]3(O)C(=O)C(C(N)=O)C(=O)[C@@H](N(C)C)C3C(O)C21 (stereo partly drawn) [(2Z,4S,5S,6R,12aS)-2-[amino(hydroxy)methylidene]-4-(dimethylamino)-5,10,11,12a-tetrahydroxy-6-methyl-4a,5,5a,6-tetrahydro-4H-tetracene-1,3,12-trione;ethanol;hydrate;hydrochloride]	45.3
Cc1c(C(=O)NN=Cc2ccco2)[nH][nH]c1=O	> 300
C=CCOc1cccc(C2C(C(=O)c3ccco3)C(=O)C(=O)N2Cc2ccco2)c1 (stereo not given) [1-(2-furanylmethyl)-3-[2-furanyl(oxo)methyl]-4-hydroxy-2-(3-prop-2-enoxyphenyl)-2H-pyrrol-5-one]	> 300

Structure (SMILES)	EC50 [µM]
C=CCN1C(=O)NC(=O)C(=CNc2ccc(N(CC)CC)cc2)C1=O [(5E)-1-allyl-5-[[4-(diethylamino)anilino]methylene]barbituric acid]	113
Cc1c(NC=C2C(=O)N(C)C(=O)c3ccccc32)c(=O)n(-c2ccccc2)n1C [(4E)-4-[[(1,5-dimethyl-3-oxo-2-phenyl-4-pyrazolyl)amino]methylidene]-2-methylisoquinoline-1,3-dione]	> 300
CN=c1scc(C)n1N=Cc1ccc(O)c(O)c1O [(4E)-2,3-dihydroxy-4-[[(4-methyl-2-methylimino-1,3-thiazol-3-yl)amino]methylidene]cyclohexa-2,5-dien-1-one]	67.1
COc1ccc(C(C)N=Nc2nc3ccccc3nc2C)cc1OC (stereo not given) [MLS001029936]	66.5
O=[N+]([O-])c1cc/c(=N\c2ccccc2O)c2no[nH]c1-2 [MLS001206694]	28.2
COc1cc(CN=Nc2ccc([N+](=O)[O-])cc2)ccc1OCC(=O)Nc1ccc(C)c(C)c1 [MLS000537060]	234
C=c1c(C(=O)OC)c(O)c(=Cc2cccs2)n1-c1ccc(Cl)cc1 [(5E)-1-(4-chlorophenyl)-2-methyl-4-oxo-5-(thiophen-2-ylmethylidene)-3-pyrrolecarboxylic acid methyl ester]	> 300
CN1CCC2(CC1)C(C#N)C(=N)NC(=S)C2C#N (stereo not given) [SMR000211480]	8.53
Cc1ccc2oc(=O)c(CC(=O)CC(C)C)nc2c1 [(3Z)-3-(2-keto-4-methyl-pentylidene)-6-methyl-4H-1,4-benzoxazin-2-one]	> 300
O=C(N/N=C/C1C=C(Cl)C=C([N+](=O)[O-])C1=O)c1ccccc1NS(=O)(=O)c1cccs1 (stereo not given) [SMR000364876]	1.56
CC(N=Nc1ccc([N+](=O)[O-])cc1[N+](=O)[O-])c1cc2c(ccc3ccccc32)oc1=O (stereo not given) [2-[1-[(2,4-dinitrophenyl)hydrazinylidene]ethyl]-3-benzo[f][1]benzopyranone]	> 300
O=C1CCCC2=Nc3cc(Cl)ccc3SC12 (stereo not given) [MLS000333002]	8.9
COc1ccccc1OCC(=O)NN=Cc1c(O)ccc2ccccc12	131
CCN(CC)c1ccc(NC=C2C(=O)NC(=O)N(Cc3ccccc3)C2=O)cc1 [(5E)-1-benzyl-5-[[4-(diethylamino)anilino]methylene]barbituric acid]	> 300
COc1cccc(C2C3=C(CC(c4ccco4)CC3=O)OC(=N)C2C#N)c1OCc1ccc(F)cc1 (stereo not given) [SMR000021029]	> 300
N#CC1C(=N)Oc2cc(O)c(Cl)cc2C1c1ccccc1F (stereo not given) [2-Amino-6-chloro-4-(2-fluoro-phenyl)-7-hydroxy-4H-chromene-3-carbonitrile]	> 300
CSc1nncc(C(C)N=Nc2ccccc2)n1 (stereo not given) [1-[3-(methylsulfanyl)-1,2,4-triazin-5-yl]ethanone phenylhydrazone]	> 300
CC(C)c1ccc(C2C(C#N)=C3Sc4ccccc4N3C(=N)C2C#N)cc1 (stereo not given) [1-amino-3-(4-propan-2-ylphenyl)-3H-pyrido[2,1-b][1,3]benzothiazole-2,4-dicarbonitrile]	61.3
Cc1cc(=O)[nH]c(N=NCc2ccc(O)c(O)c2)n1 [MLS001194906]	125
O=C1C=C(NNC(=O)c2sc3ccccc3c2Cl)CCC1 [3-chloranyl-N-[(3-oxidanylidenecyclohexylidene)amino]-1-benzothiophene-2-carboxamide]	20.5
c1ccc(C2=Nc3nnnn3C(c3cccs3)C2)cc1 (stereo not given) [5-Phenyl-7-thiophen-2-yl-4,7-dihydro-tetrazolo[1,5-a]pyrimidine]	> 300
O=C1NC(=O)N(CCc2ccccc2)C(=O)C1=CNNC(=O)c1ccccc1O [2-hydroxy-N'-[(E)-[2,4,6-trioxo-1-(2-phenylethyl)-1,3-diazinan-5-ylidene]methyl]benzohydrazide]	201
O=C1NC(=O)N(Cc2ccccc2)C(=O)C1=CNc1ccc(CN2CCOCC2)cc1 [(5E)-1-benzyl-5-[[4-(morpholin-4-ylmethyl)anilino]methylidene]-1,3-diazinane-2,4,6-trione]	> 300
Oc1ccc2ccccc2c1CN=Nc1nnc(-c2ncc[nH]2)c2ccccc12 [SMR000151639]	2.45
Cc1cc(C(=O)NN=CC2C=C(Cl)C=C([N+](=O)[O-])C2=O)[nH]n1 (stereo not given) [SMR000414694]	> 300
